# Measurements as given in patent publication US20110039763A1, “TARGETED ANTIMICROBIAL MOIETIES” (C3 JIAN, INC., priority 2009, published 2011).
# Columns and labels:
# microorganisms [1] = assay: Morphology, biofilm and growth disrupting peptides (Table 5); type: cell-based; design: key: A: Peptide aggregates; B: Less hyphal formation; Clumps; Diffuse clumps and small polyps; F: Diffuse growth; H: Thin; I: Growth inhibition; Microcolony formation; Rippled; Small polyps; Thick; W: Halo formation on top, microlonies on bottom
# From the text: In certain embodiments peptides that induce alterations in phenotype or other biological activities can also be used as antimicrobial effector moieties.
# microorganisms [2] = assay: Targeting peptide binding to target microorganisms (Tables 3, 10, 12); details: microorganism(s) the targeting peptide binds; binding in aqueous buffers varied with peptide solubility, preferably 1x PBS
Substance,"Organism, effect (microorganisms [1]; C. jeikeium)","Organism, effect (microorganisms [1]; E. faecalis)","Organism, effect (microorganisms [1]; MRSA)","Organism, effect (microorganisms [1]; S. epidermidis)","Organism, effect (microorganisms [1]; S. pneumoniae)",Target(s) (microorganisms [2]),"Organism, effect (microorganisms [1]; B. subtilis)","Organism, effect (microorganisms [1]; C. albicans)"
PF-657 (chain 1 YVANYTITQFGRDFDDRLAVAIHFA; chain 2 YVANYTITQFGRDFDDRLAVAIHFA; Peptide with targeting and/or antimicrobial activity),C. jeikeium (D),E. faecalis (D),MRSA (D),S. epidermidis (C),S. pneumoniae (H),Mycobacteria spp,,
PF-658 (chain 1 PTTPPPTTPPEIPTGGTVIST; chain 2 PTTPPPTTPPEIPTGGTVIST; Peptide with targeting and/or antimicrobial activity),,,MRSA (R),,S. pneumoniae (H),Mycobacteria spp,,
PF-659 (chain 1 TVIST; chain 2 TVIST; Peptide with targeting and/or antimicrobial activity),,,MRSA (R),S. epidermidis (M),S. pneumoniae (C),Mycobacteria spp,B. subtilis (H),
PF-660 (chain 1 TDPQATAAPRRRTSPR; chain 2 TDPQATAAPRRRTSPR; Peptide with targeting and/or antimicrobial activity),,,,,S. pneumoniae (H),Mycobacteria spp,,
PF-661 (chain 1 PDEDIRRRAILPPAGPCRPMSPE; chain 2 PDEDIRRRAILPPAGPCRPMSPE; Peptide with targeting and/or antimicrobial activity),,,MRSA (R),,,Mycobacteria spp,,
PF-662 (chain 1 GKQSRAHGPVASRREFRRKSG; chain 2 GKQSRAHGPVASRREFRRKSG; Peptide with targeting and/or antimicrobial activity),,,,,S. pneumoniae (A),Mycobacteria spp,,
PF-663 (chain 1 ATLIPRKA; chain 2 ATLIPRKA; Peptide with targeting and/or antimicrobial activity),,,,,S. pneumoniae (A),Mycobacteria spp,,
PF-665 (chain 1 VLRVATAVGEVPTGL; chain 2 VLRVATAVGEVPTGL; Peptide with targeting and/or antimicrobial activity),,,,,S. pneumoniae (H),Mycobacteria spp,,
PF-666 (chain 1 PNRRSRPR; chain 2 PNRRSRPR; Peptide with targeting and/or antimicrobial activity),,,,,S. pneumoniae (A),Mycobacteria spp,,
PF-667 (chain 1 PAHQRLRIDQRLVADRDMVQDYES; chain 2 PAHQRLRIDQRLVADRDMVQDYES; Peptide with targeting and/or antimicrobial activity),,E. faecalis (R),MRSA (R),S. epidermidis (R),S. pneumoniae (R),Mycobacteria spp,,
PF-668 (chain 1 TNAESMALAFRGRVHMSVNIAGLT; chain 2 TNAESMALAFRGRVHMSVNIAGLT; Peptide with targeting and/or antimicrobial activity),C. jeikeium (D),E. faecalis (D),MRSA (R),S. epidermidis (M),S. pneumoniae (M),Mycobacteria spp,B. subtilis (A),C. albicans (A)
PF-675 (EIIPISPTRRCEMHTMSSAEYRGL; Peptide with targeting and/or antimicrobial activity),,E. faecalis (R),,,S. pneumoniae (C),Mycobacteria spp,,
PF-677 (TCRGAGMH; Peptide with targeting and/or antimicrobial activity),,E. faecalis (R),MRSA (D),S. epidermidis (R),S. pneumoniae (D),Mycobacteria spp,,
PF-680 (ADPHPTTGI; Peptide with targeting and/or antimicrobial activity),,,MRSA (R),,,Mycobacteria spp,,
PF-682 (RRGKSEQGLSRR; Peptide with targeting and/or antimicrobial activity),,,,,S. pneumoniae (A),Mycobacteria spp,,
PF-683 (LWPVA; Peptide with targeting and/or antimicrobial activity),,,MRSA (R),S. epidermidis (R),S. pneumoniae (H),Mycobacteria spp,,
PF-684 (RKLSLASGFALWRRSLV; Peptide with targeting and/or antimicrobial activity),,E. faecalis (A),,,S. pneumoniae (C),Mycobacteria spp,,C. albicans (B)
PF-685 (PTLWLACL; Peptide with targeting and/or antimicrobial activity),C. jeikeium (R),E. faecalis (R),MRSA (M),S. epidermidis (M),S. pneumoniae (M),Mycobacteria spp,,
PF-687 (AKRVLSLAVAPHRRQPVQGT; Peptide with targeting and/or antimicrobial activity),,,,,S. pneumoniae (A),Mycobacteria spp,,
PF-688 (ARNHAVIPAG; Peptide with targeting and/or antimicrobial activity),,,,,S. pneumoniae (A),Mycobacteria spp,,
PF-690 (MIPLAGDPVSSHRTVEFGVLGTYLVSGGSL; Peptide with targeting and/or antimicrobial activity),,E. faecalis (R),MRSA (R),S. epidermidis (R),S. pneumoniae (M),Mycobacteria spp,,
PF-691 (HRTVEFGVLGTYLVSGGSL; Peptide with targeting and/or antimicrobial activity),,,,,S. pneumoniae (R),Mycobacteria spp,,
PF-692 (GVAREDPLEPDPLAPIIDDSR; Peptide with targeting and/or antimicrobial activity),,,MRSA (R),,,Mycobacteria spp,,
PF-693 (PDPAR; Peptide with targeting and/or antimicrobial activity),,,,,S. pneumoniae (A),Mycobacteria spp,,
PF-694 (DLIRPLYSMSAPSVA; Peptide with targeting and/or antimicrobial activity),,,MRSA (R),,S. pneumoniae (A),Mycobacteria spp,,
PF-695 (ALSVMLGNIPLVVPNANQL; Peptide with targeting and/or antimicrobial activity),,E. faecalis (R),MRSA (R),,S. pneumoniae (C),Mycobacteria spp,,
